In patent US6583090B1, “Hetaryl-substituted benzyl phenyl ethers, method for the production thereof, and their use for combating harmful fungi and animal pests” (priority 1998, dated 2003):

Tested on: Puccinia recondita
Assay: Curative activity against Puccinia recondita on wheat (leaf rust of wheat)
Assay type: in vivo, Puccinia recondita on wheat c.v. Frühgold
Details: 16 ppm, sprayed the day after infection, 7 days in greenhouse, untreated plants 80% infection
Protocol: The active ingredients, separately or together, were prepared as a 10% strength emulsion in a mixture of 70% by weight of cyclohexanone, 20% by weight of Nekanil® LN (Lutensol® AP6, wetting agent having emulsifying and dispersant action based on ethoxylated alkylphenols) and 10% by weight of Wettol® EM (nonionic emulsifier based on ethoxylated castor oil) and diluted with water to the desired concentration.
Leaves of potted wheat seedlings c.v. “Frühgold” were dusted with leaf rust spores (Puccinia recondite). The pots were then placed for 24 hours into a chamber with high atmospheric humidity (90 to 95%) at 20 to 25° C. During this time, the spores germinated, and the germinal tubes penetrated the leaf tissue. The next day, the infected plants were sprayed to runoff point with an aqueous spray liquor which had been prepared using a stock solution of 10% of active ingredient, 63% of cyclohexanone and 27% of emulsifier. After the spray coating had dried on, the test plants were cultivated for 7 days in a greenhouse at from 20 to 22° C. and a relative atmospheric humidity of 65 to 70%. The extent of rust development on the leaves was then determined.

Row | SMILES | % infection (rust development on the leaves)
1 | CNC(=O)C(=NOC)c1ccccc1COc1ccc(-n2nc(C)cc2C)cc1Cl [I-11, N-methyl-2-{2-chloro-[4-(3,5-dimethyl)pyrazol-1-yl]phenoxymethylene}-phenylglyoxamide O-methyloxime] | no infection
2 | CON=C(C(=O)OC)c1ccccc1COc1ccc(-n2nc(C)cc2C)cc1Cl [I-12, methyl 2-{2-chloro-[4-(3,5-dimethyl)-pyrazol-1-yl]phenoxymethylene}phenylglyoxylate O-methyloxime] | no infection
